Test results as given in US12473295B2, “Substituted straight chain spiro derivatives” (Janssen Pharmaceutica NV, priority 2019, dated 2025).
Counter-ions that a name gives are not always drawn.

Columns and labels:
hERG potassium channel = hERG potassium channel (Homo sapiens (Human), UniProt Q12809); experiment: Effect on membrane potassium current IKr in hERG transfected CHO cells, Protocol 1 (QPatch); assay type: cell-based
In short: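 Whole-cell automated patch clamp on CHO cells stably expressing hERG, held at −80 mV; the value is the tail current at −40 mV after a 2 s step to +60 mV, at pH 7.4 bath and pH 7.2 pipette. After 0.3% DMSO control, compound was applied at 3×10^−7 M, 3×10^−6 M, 10^−5 M and 3×10^−5 M, 5 min each. IC50 comes from a non-linear least-squares fit of block versus vehicle.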

OCI-AML3 cells = experiment: Proliferation assay (spheroid growth, 8 days), OCI-AML3; assay type: cell-based, human; settings: Homo sapiens, OCI-AML-3, […], OCI-AML3, 8 days
In short: (§1)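 Cells were seeded at 200 (MOLM14, OCI-AML3) or 300 (KO-52) per well in ultra-low attachment round-bottom plates with compounds at several concentrations, 0.3% DMSO, and grown 8 days at 37° C. Spheroid confluence was imaged on day 8; IC50 came from a variable-slope fit normalized to DMSO and high-dose reference compound.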

KO-52 cells = experiment: Proliferation assay (spheroid growth, 8 days), KO-52 control cell line; assay type: cell-based, human; settings: Homo sapiens, […], read-out: spheroid assay_OneTime KO-52 IC50
In short: as §1

MOLM14 cells = experiment: Proliferation assay (spheroid growth, 8 days), MOLM14; assay type: cell-based, human; settings: Homo sapiens, MOLM-14, […], MOLM14, 8 days; read-out: spheroid assay_OneTime MOLM14 IC50;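 also: spheroid size read as confluence by live-cell imaging, compounds added at a range of concentrations with 0.3% DMSO, DMSO-treated wells = 0%, highest reference dose = low control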
[1] = Mouse PK (in vivo T1/2 and oral bioavailability); settings: fasted male CD-1 mice, formulating agent HP-β-CD; for half-life: single IV 0.5 or 1.0 mg/kg; for bioavailability: single PO 5 mg/kg
Protocol: 3) Mouse PK (In Vivo T1/2 and Oral Bioavailability)
In vivo pharmacokinetics (PK) were assessed in fasted male CD-1 mice (age 6-8 weeks) following a single intravenous (IV, 0.5 or 1.0 mg/kg administered at 2.5 ml/kg) or oral (PO, 5 mg/kg administered at 10 ml solution/kg) dose of test article formulated in a 20% (w:vol) HP-β-CD solution or in Pyrogen free water.
Plasma and/or whole blood samples were collected from the dorsal metatarsal vein at desired timepoints via serial capillary microsampling (approx. 0.03 mL) using EDTA as an anticoagulant. Concentrations of compound in the plasma and blood samples were analyzed using a qualified LC-MS/MS method. In silico analysis of main pharmacokinetic parameters was performed using WinNonlin (Phoenix™, version 6.1) or similar software. (Results see Table 4)

hERG potassium channel, sequence (Q12809 whole entry): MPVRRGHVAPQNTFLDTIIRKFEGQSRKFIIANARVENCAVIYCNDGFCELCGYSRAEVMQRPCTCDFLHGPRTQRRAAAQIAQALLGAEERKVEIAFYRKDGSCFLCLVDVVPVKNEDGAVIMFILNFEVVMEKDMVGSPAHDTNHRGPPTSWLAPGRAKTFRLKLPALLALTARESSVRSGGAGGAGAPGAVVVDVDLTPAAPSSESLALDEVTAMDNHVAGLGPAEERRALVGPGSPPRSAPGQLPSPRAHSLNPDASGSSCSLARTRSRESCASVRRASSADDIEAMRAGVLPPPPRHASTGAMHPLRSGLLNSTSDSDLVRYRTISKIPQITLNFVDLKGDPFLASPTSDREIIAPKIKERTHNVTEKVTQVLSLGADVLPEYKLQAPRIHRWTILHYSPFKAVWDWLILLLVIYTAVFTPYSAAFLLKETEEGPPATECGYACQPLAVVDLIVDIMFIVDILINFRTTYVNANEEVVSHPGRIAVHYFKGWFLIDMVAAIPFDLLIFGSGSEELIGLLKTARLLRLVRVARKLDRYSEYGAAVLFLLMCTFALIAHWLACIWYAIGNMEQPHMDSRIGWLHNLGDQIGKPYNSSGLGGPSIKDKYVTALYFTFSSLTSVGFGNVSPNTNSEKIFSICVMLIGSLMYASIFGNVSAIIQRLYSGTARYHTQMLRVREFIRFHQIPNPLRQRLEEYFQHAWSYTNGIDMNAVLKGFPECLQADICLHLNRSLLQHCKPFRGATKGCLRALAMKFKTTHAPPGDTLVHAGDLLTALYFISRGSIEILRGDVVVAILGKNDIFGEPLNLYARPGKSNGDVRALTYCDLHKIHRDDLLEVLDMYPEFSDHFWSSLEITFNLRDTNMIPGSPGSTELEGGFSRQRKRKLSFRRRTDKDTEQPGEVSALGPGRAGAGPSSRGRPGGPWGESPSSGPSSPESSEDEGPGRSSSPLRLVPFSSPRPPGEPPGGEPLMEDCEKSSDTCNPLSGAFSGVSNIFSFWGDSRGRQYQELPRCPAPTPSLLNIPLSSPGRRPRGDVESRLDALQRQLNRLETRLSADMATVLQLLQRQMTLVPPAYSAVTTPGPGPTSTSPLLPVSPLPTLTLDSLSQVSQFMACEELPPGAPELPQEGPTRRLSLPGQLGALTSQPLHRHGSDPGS

Molecule `CC(C)[C@@H](CCC(C)(C)N)N1CC2(CCN(c3ncnnc3Oc3ccc(F)cc3-c3cncnc3C3CC3)C2)C1` (single isomer, unassigned) [Compound 37, (*R)-5-(6-(6-(2-(4-cyclopropylpyrimidin-5-yl)-4-fluorophenoxy)-1,2,4-triazin-5-yl)-2,6-diazaspiro[3.4]octan-2-yl)-2,6-dimethylheptan-2-amine] has an IC50 (hERG potassium channel) greater than 30200 nM, an IC50 (OCI-AML3 cells) of 430 nM and an IC50 (KO-52 cells) greater than 15000 nM. It also gave an IC50 (MOLM14 cells) of 40 nM, a half-life [1] greater than 12 h and a bioavailability [1] of less than 1%.
For `COCCNCCC[C@H](C(C)C)N1CC2(CCN(c3ncnnc3Oc3ccc(F)cc3C(=O)N(C(C)C)C(C)C)C2)C1` (single isomer, unassigned) [Compound 99, (*R)-5-fluoro-N,N-isopropyl-2-((5-(2-(6-((2-methoxyethyl)amino)-2-methylhexan-3-yl)-2,6-diazaspiro[3.4]octan-6-yl)-1,2,4-triazin-6-yl)oxy)benzamide oxalate], the IC50 (OCI-AML3 cells) was 82 nM, the IC50 (KO-52 cells) was 11500 nM and the IC50 (MOLM14 cells) was 8.5 nM.
Work on `CCN(C(=O)c1cc(F)ccc1Oc1nncnc1N1CCC2(C1)CN([C@H](CCCN)C(C)C)C2)C(C)C` [Compound 1, (R)-2-((5-(2-(6-amino-2-methylhexan-3-yl)-2,6-diazaspiro[3.4]octan-6-yl)-1,2,4-triazin-6-yl)oxy)-N-ethyl-5-fluoro-N-isopropylbenzamide formate] yielded an IC50 (hERG potassium channel) greater than 30200 nM, an IC50 (OCI-AML3 cells) of 170 nM and an IC50 (KO-52 cells) greater than 15000 nM. It also gave an IC50 (MOLM14 cells) of 230 nM, a half-life [1] of 15 h and a bioavailability [1] of less than 1%.
Molecule `CCN(C(=O)c1cc(F)ccc1Oc1nncnc1N1CCC2(C1)CN([C@H](CCCNCC(OC)OC)C(C)C)C2)C(C)C.O=C(O)/C=C/C(=O)O` [Compound 104, (R)-2-((5-(2-(6-((2,2-dimethoxyethyl)amino)-2-methylhexan-3-yl)-2,6-diazaspiro[3.4]octan-6-yl)-1,2,4-triazin-6-yl)oxy)-N-ethyl-5-fluoro-N-isopropylbenzamide fumarate] has an IC50 (OCI-AML3 cells) of 150 nM, an IC50 (KO-52 cells) of 10700 nM and an IC50 (MOLM14 cells) of 6.7 nM. For the same molecule, the half-life [1] was 8.7 h and the bioavailability [1] was 6.1%.
Molecule `CCN(C(=O)c1cc(F)ccc1Oc1nncnc1N1CCC2(C1)CN([C@H](CCCN[C@H](C)COC)C(C)C)C2)C(C)C.O=C(O)/C=C/C(=O)O` [Compound 112, N-ethyl-5-fluoro-N-isopropyl-2-(5(2-((R)-6-(((R)-1-methoxypropan-2-yl)amino)-2-methylhexan-3-yl)-2,6-diazaspiro[3.4]octan-6-yl)-1,2,4-triazin-6-yl)oxy)benzamide fumarate] has an IC50 (OCI-AML3 cells) of 81 nM, an IC50 (KO-52 cells) greater than 15000 nM and an IC50 (MOLM14 cells) of 9.8 nM.
`CCN(C(=O)c1cc(F)ccc1Oc1nncnc1N1CCC2(C1)CN([C@H](CCCNCCC(F)F)C(C)C)C2)C(C)C.O=C(O)/C=C/C(=O)O` [Compound 114, (R)-2-(5-(2-(6-((3,3-difluoropropyl)amino)-2-methylhexan-3-yl)-2,6-diazaspiro[3.4]octan-6-yl)-1,2,4-triazin-6-yl)oxy)-N-ethyl-5-fluoro-N-isopropylbenzamide fumarate] gave an IC50 (OCI-AML3 cells) of 42 nM, an IC50 (KO-52 cells) of 1690 nM and an IC50 (MOLM14 cells) of 14 nM.
For `CCN(C(=O)c1cc(F)ccc1Oc1nncnc1N1CCC2(C1)CN([C@H](CCCN(C)CCNC(C)=O)C(C)C)C2)C(C)C.O=C(O)/C=C/C(=O)O` [Compound 245, (R)-2-((5-(2-(6-((2-acetamidoethyl)(methyl)amino)-2-methylhexan-3-yl)-2,6-diazaspiro[3.4]octan-6-yl)-1,2,4-triazin-6-yl)oxy)-N-ethyl-5-fluoro-N-isopropylbenzamide fumarate], the IC50 (OCI-AML3 cells) was 430 nM, the IC50 (KO-52 cells) was greater than 15000 nM and the IC50 (MOLM14 cells) was 73 nM. For the same molecule, the half-life [1] was 7 h and the bioavailability [1] was less than 1%.
`CCN(C(=O)c1cc(F)ccc1Oc1nncnc1N1CCC2(C1)CN([C@H](CCCN(C)CCC(=O)N(C)C)C(C)C)C2)C(C)C` [Compound 246, (R)-2-((5-(2-(6-((3-(dimethylamino)-3-oxopropyl)(methyl)amino)-2-methylhexan-3-yl)-2,6-diazaspiro[3.4]octan-6-yl)-1,2,4-triazin-6-yl)oxy)-N-ethyl-5-fluoro-N-isopropylbenzamide formate] gave an IC50 (OCI-AML3 cells) of 380 nM, an IC50 (KO-52 cells) greater than 15000 nM and an IC50 (MOLM14 cells) of 60 nM.
